ChEMBL document CHEMBL1135523, “(4R,5S)/(4S,5R)-4,5-Bis(4-hydroxyphenyl)-2-imidazolines: ligands for the estrogen receptor with a novel binding mode” (J Med Chem, 2002)

Assays:
[1] = target: Estrogen receptor (Bos taurus) (UniProt Q9XSB5+P49884); experiment: Displacement of 17-beta-[3H]-estradiol from Estrogen receptor of calf uterine cytosol at 20 uM; type: protein assay
Estrogen receptor = target: T1, Estrogen receptor (Homo sapiens, UniProt P03372); experiment: Agonist activity in transcriptional activation assay in MCF-7-2a cells compared to estradiol E2; type: functional, cell-based
T1 sequence (P03372 whole entry): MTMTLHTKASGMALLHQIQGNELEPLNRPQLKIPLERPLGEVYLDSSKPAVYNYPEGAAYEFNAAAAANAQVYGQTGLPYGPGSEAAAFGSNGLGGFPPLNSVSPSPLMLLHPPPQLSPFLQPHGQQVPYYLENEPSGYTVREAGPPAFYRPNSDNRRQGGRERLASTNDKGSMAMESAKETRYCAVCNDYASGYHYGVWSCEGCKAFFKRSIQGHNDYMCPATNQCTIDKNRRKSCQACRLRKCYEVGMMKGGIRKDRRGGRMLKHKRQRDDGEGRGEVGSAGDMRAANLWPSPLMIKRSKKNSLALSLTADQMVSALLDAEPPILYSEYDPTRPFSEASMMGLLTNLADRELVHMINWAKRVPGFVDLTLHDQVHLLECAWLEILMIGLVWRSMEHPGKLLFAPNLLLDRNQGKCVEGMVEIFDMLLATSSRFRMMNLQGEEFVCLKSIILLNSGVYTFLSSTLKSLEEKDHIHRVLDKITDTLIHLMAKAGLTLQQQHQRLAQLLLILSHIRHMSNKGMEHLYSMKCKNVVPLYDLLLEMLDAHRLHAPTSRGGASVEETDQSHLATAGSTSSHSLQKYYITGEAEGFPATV

Row | SMILES | Control [1] [%] | EC50 (Estrogen receptor) [nM]
1 | Oc1ccc([C@@H]2N=CN[C@@H]2c2c(Cl)cc(O)cc2Cl)c(F)c1 | 40.1 | 620
2 | Oc1ccc([C@H]2N=CN[C@H]2c2ccc(O)cc2F)c(F)c1 | 20.9 | 
3 | Oc1ccc([C@H]2N=CN[C@H]2c2ccc(O)cc2)cc1 | 1.7 | 
4 | Oc1ccc([C@H]2N=CN[C@H]2c2ccc(O)cc2I)c(I)c1 | 42.9 | 1800
5 | Cc1cc(O)ccc1[C@H]1N=CN[C@H]1c1ccc(O)cc1C | 0 | 

Further lines, results first:

Row | Control [1] [%] | EC50 (Estrogen receptor) [nM] | SMILES
6 | 70.3 | 65 | Oc1ccc([C@@H]2N=CN[C@@H]2c2c(Cl)cc(O)cc2Cl)c(Cl)c1
7 | 44 | 380 | Oc1ccc([C@H]2NC=N[C@H]2c2ccc(O)cc2Cl)c(Cl)c1
